Measured values from ChEMBL document CHEMBL4266059, “Synthesis of Cyanoenone-Modified Diterpenoid Analogs as Novel Bmi-1-Mediated Antitumor Agents” (ACS Med Chem Lett, 2018).

test system: HCT-116; test: Antiproliferative activity against human HCT116 cells after 72 hrs by SRB assay; type: functional, cell-based; conditions: HCT-116, 72 h

| Structure (SMILES) | IC50 [nM] |
| --- | --- |
| CCOc1ccc(NC(=O)c2cc3c(cc2OC)[C@@]2(C)C=C(C#N)C(=O)C(C)(C)[C@@H]2CC3)cc1 | 820 |
| COc1cc2c(cc1C(=O)Nc1ccc(Br)cc1)CC[C@H]1C(C)(C)C(=O)C(C#N)=C[C@]21C | 530 |
| COc1cc2c(cc1C(=O)Nc1ccc(C(N)=O)cc1)CC[C@H]1C(C)(C)C(=O)C(C#N)=C[C@]21C | 850 |
| COC(=O)c1ccc(NC(=O)c2cc3c(cc2OC)[C@@]2(C)C=C(C#N)C(=O)C(C)(C)[C@@H]2CC3)cc1 | 690 |
| COc1cc2c(cc1C(=O)Nc1ccc(C#N)cc1)CC[C@H]1C(C)(C)C(=O)C(C#N)=C[C@]21C | 570 |

The remaining lines, values ahead:

| IC50 [nM] | Structure (SMILES) |
| --- | --- |
| 1310 | COc1cc2c(cc1C(=O)Oc1ccccc1)CC[C@H]1C(C)(C)C(=O)C(C#N)=C[C@]21C |
| > 50000 | COc1cc2c(cc1C(=O)O)CC[C@H]1C(C)(C)C(=O)C(C#N)=C[C@]21C |
| 560 | C=CCOc1ccc(NC(=O)c2cc3c(cc2OC)[C@@]2(C)C=C(C#N)C(=O)C(C)(C)[C@@H]2CC3)cc1 |
| 750 | COc1cc2c(cc1C(=O)Nc1ccc(N)cc1)CC[C@H]1C(C)(C)C(=O)C(C#N)=C[C@]21C |
| 760 | COc1cc2c(cc1C(=O)Nc1ccccc1)CC[C@H]1C(C)(C)C(=O)C(C#N)=C[C@]21C |
| > 50000 | COc1cc2c(cc1C(=O)NCC(=O)O)CC[C@H]1C(C)(C)C(=O)C(C#N)=C[C@]21C |
| 670 | COc1cc2c(cc1C(=O)Nc1ccc(Cl)cc1)CC[C@H]1C(C)(C)C(=O)C(C#N)=C[C@]21C |
